Patent US8822500B2, “Tyrosine kinase inhibitors” (Chembridge Corporation, priority 2008, dated 2014)
Where two headings read alike, the source gives them in different places.

Experiments:
[1] = target: ALK (Homo sapiens (Human), UniProt Q9UM73); assay: In vitro kinase activity assay (LANCE TR-FRET); type: biochemical;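 also: kinase reactions with ATP and a poly-GT peptide substrate, phosphorylated product read by time-resolved FRET, 11-point curve from 10^−11 to 10^−5 M, DMSO as negative control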
[2] = target: INSR (Homo sapiens (Human), UniProt P06213); assay: In vitro kinase activity assay (LANCE TR-FRET); type: biochemical
[3] = tested on: K299 lymphoma cells; assay: Cellular assay, 3 day cell viability (WST-1); type: cell-based; conditions: 3 days
[4] = tested on: U937 lymphoma cells; assay: Cellular assay, 3 day cell viability (WST-1); type: cell-based; conditions: Homo sapiens, U-937, 72 h, 3 days, WST-1
[5] = target: ALK (WT) (Homo sapiens (Human), UniProt Q9UM73); assay: Cell free kinase assay (Carna Biosciences kinases); type: biochemical
[6] = tested on: EML4-ALK BaF3 cells; assay: BaF3 stables cell viability (WST-1)
[7] = target: TrkB (Homo sapiens (Human), UniProt Q16620); assay: In vitro kinase activity assay (LANCE TR-FRET); type: biochemical
[8] = target: ROS (Homo sapiens (Human), UniProt P08922); assay: In vitro kinase activity assay (LANCE TR-FRET); type: biochemical; conditions: read-out: ROS (nM) IC50
[9] = target: RET (Homo sapiens (Human), UniProt P07949); assay: In vitro kinase activity assay (LANCE TR-FRET); type: biochemical; conditions: read-out: RET (nM) IC50
[10] = tested on: SUDHL-1 lymphoma cells; assay: Cellular assay, 3 day cell viability (WST-1); type: cell-based; conditions: 3 days, WST-1
[11] = tested on: NB-1 neuroblastoma cells; assay: Cellular assay, 3 day cell viability (WST-1); type: cell-based; conditions: 72 h, 3 days, WST-1, read-out: NB-1 IC50
[12] = Metabolic stability, Phase I microsome reactions; type: in vitro ADME, mouse; conditions: mouse, pH 7.4, Phase I only, 1.0 mg/ml microsomes, read-out: Mouse LM-P1 Half-life;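 as to Rat LM-P1 Half-life (min): compound at 0.5 µM incubated with rat liver microsomes (1.0 mg/ml protein) plus NADPH regenerating system at 37 °C, sampled up to 60 min, remaining parent quantified by LC-MS/MS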
[13] = Caco-2 cell permeation study; type: in vitro ADME; conditions: human, Caco-2, 10 μM;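 also: Caco-2 monolayers grown for 21–28 days with integrity confirmed by TEER, apical buffer HBSS with MES, basolateral buffer HBSS with HEPES, compound levels quantified by LC/MS/MS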
[14] = Rat pharmacokinetics / bioavailability; type: in vivo
[15] = microsomes, 0.5 μM, pH 7.4
[16] = in vitro; conditions: human, microsomes; for microsomal CLint at 0.5 μM: pH 7.4, Human LM-P1 CL (ul/min/mg); for half-life at 0.5 μM: pH 7.4, Human LM-P1 Half-life (min)
[17] = in vitro; conditions: rat, microsomes; for half-life at 0.5 μM: pH 7.4; for microsomal CLint at 0.5 μM: pH 7.4, Rat LM-P1 CL (ul/min/mg)
[18] = Dog pharmacokinetics
[19] = Mouse pharmacokinetics; conditions: for AUC: plasma, 10 mg/kg
[20] = Guinea pig pharmacokinetics; conditions: for AUC(0-t): plasma, 10 mg/kg
[21] = tested on: NPM-ALK R1275Q BaF3 cells; assay: BaF3 stables cell viability (WST-1); conditions: Mus musculus, BaF3, read-out: BaF3 Stables IC50 nM R1275Q
[22] = tested on: FLT3-ITD BaF3 cells; assay: BaF3 stables cell viability (WST-1); conditions: Mus musculus, BaF3, read-out: BaF3 Stables IC50 nM FLT3-ITD
[23] = Metabolic stability, Phase I microsome reactions; conditions: rat, microsomes;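 as to Rat LM-P1 Half-life (min): compound at 0.5 µM incubated with rat liver microsomes (1.0 mg/ml protein) plus NADPH regenerating system at 37 °C, sampled up to 60 min, remaining parent quantified by LC-MS/MS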
[24] = target: T1, hERG (human ether-a-go-go related gene) potassium channel (Homo sapiens (Human), UniProt Q12809); assay: hERG potassium channel current, automated patch clamp (PatchXpress 7000A);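 also: Four-point series of 0.3, 3, 10 and 30 µM, two cells recorded per concentration, 5 min exposure at each level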
[25] = target: T2, hERG potassium channel (Homo sapiens (Human), UniProt Q12809); assay: as above; conditions: human; for inhibition at 5 min, 30 µM: 30 μM (low solubility at this concentration)
[26] = target: T1, hERG (human ether-a-go-go related gene) potassium channel; conditions: 5 min
[27] = target: T2, hERG potassium channel; assay: in vitro
[28] = target: IGF1R (Homo sapiens (Human), UniProt P08069); assay: In vitro kinase activity assay (LANCE TR-FRET); type: biochemical
[29] = target: TrkA (Homo sapiens (Human), UniProt P04629); assay: In vitro kinase activity assay (LANCE TR-FRET); type: biochemical;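 also: kinase reaction with poly-GT peptide substrate and ATP, phosphorylated product quantified by time-resolved FRET, eleven-point dose curves from 10^−11 to 10^−5 M in triplicate, DMSO as negative control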
[30] = target: TrkC (Homo sapiens (Human), UniProt Q16288); assay: In vitro kinase activity assay (LANCE TR-FRET); type: biochemical; conditions: read-out: GTx-TrKC IC50
[31] = microsomes, 0.5 μM, pH 7.4; remark: listed apart in the source
[32] = tested on: EML4-ALK C1156Y BaF3 cells; assay: BaF3 stables cell viability (WST-1); conditions: read-out: BaF3 Stables IC50 nM C1156Y; EML4-ALK construct
[33] = tested on: EML4-ALK R1275Q BaF3 cells; assay: BaF3 stables cell viability (WST-1); conditions: read-out: BaF3 Stables IC50 nM R1275Q; EML4-ALK construct
[34] = male, Sprague-Dawley, plasma, iv, 10 mg/kg I.V.
[35] = male, Sprague-Dawley, plasma, po, 10 mg/kg P.O.
[36] = Individual Data Points (% Inhibition)
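For Human LM-P1 Half-life (min) in this document: liver microsomes at 1.0 mg/ml with NADPH regenerating system, 37 °C, sampled at 0, 5, 10, 30 and 60 min, parent compound quantified by LC-MS/MS.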

TrkA, sequence (P04629 33-796): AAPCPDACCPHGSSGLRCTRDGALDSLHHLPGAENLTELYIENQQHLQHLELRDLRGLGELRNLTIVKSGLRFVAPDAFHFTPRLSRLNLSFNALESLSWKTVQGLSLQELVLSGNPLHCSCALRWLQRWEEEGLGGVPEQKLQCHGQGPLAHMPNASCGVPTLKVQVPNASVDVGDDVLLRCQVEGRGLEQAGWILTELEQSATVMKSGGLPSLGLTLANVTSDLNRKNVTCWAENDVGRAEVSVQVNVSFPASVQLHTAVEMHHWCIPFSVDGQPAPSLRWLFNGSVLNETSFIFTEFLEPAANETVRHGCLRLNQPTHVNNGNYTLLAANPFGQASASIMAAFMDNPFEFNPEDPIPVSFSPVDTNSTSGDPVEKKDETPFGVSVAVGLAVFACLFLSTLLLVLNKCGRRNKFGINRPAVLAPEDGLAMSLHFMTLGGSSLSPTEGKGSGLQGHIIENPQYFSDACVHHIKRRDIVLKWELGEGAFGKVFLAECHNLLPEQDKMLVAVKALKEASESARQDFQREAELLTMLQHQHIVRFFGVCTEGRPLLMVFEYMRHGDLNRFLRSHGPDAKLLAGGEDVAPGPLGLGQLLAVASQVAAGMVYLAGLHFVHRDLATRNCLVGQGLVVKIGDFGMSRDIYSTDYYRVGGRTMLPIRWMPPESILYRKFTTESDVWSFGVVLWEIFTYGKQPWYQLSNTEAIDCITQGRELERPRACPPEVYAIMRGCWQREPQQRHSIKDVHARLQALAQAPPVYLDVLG
T1 sequence (Q12809 whole entry): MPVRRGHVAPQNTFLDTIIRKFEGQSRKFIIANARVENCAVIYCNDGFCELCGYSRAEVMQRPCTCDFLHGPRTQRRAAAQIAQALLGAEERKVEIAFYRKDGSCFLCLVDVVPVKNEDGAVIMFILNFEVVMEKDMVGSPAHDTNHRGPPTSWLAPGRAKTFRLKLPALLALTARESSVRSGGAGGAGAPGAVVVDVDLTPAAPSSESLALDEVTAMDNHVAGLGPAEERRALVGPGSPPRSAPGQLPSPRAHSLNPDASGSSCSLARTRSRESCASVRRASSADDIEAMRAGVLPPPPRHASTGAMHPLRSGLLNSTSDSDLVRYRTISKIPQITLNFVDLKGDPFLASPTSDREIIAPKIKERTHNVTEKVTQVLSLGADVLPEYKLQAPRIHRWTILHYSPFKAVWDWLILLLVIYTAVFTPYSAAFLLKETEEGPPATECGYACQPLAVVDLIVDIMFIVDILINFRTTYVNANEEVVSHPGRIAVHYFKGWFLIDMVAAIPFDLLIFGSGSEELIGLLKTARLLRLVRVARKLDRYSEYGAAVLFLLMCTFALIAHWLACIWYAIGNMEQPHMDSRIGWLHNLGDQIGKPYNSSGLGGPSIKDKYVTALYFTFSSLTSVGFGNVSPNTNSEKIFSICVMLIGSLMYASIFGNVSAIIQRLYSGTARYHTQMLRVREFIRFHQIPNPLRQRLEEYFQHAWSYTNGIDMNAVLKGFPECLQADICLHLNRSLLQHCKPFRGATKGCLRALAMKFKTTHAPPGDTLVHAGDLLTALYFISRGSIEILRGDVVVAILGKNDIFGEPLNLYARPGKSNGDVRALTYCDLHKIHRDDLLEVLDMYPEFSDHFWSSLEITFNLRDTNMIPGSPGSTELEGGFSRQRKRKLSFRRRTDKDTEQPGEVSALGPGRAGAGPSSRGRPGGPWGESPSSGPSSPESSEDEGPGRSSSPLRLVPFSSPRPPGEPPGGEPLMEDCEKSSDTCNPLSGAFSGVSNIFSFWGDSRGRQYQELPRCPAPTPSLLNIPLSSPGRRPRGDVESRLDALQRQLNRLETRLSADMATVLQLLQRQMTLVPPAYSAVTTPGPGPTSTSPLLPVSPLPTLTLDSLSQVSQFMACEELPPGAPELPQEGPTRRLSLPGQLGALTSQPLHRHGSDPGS
T2 sequence (Q12809 whole entry): as above
ALK, sequence (Q9UM73 19-1620): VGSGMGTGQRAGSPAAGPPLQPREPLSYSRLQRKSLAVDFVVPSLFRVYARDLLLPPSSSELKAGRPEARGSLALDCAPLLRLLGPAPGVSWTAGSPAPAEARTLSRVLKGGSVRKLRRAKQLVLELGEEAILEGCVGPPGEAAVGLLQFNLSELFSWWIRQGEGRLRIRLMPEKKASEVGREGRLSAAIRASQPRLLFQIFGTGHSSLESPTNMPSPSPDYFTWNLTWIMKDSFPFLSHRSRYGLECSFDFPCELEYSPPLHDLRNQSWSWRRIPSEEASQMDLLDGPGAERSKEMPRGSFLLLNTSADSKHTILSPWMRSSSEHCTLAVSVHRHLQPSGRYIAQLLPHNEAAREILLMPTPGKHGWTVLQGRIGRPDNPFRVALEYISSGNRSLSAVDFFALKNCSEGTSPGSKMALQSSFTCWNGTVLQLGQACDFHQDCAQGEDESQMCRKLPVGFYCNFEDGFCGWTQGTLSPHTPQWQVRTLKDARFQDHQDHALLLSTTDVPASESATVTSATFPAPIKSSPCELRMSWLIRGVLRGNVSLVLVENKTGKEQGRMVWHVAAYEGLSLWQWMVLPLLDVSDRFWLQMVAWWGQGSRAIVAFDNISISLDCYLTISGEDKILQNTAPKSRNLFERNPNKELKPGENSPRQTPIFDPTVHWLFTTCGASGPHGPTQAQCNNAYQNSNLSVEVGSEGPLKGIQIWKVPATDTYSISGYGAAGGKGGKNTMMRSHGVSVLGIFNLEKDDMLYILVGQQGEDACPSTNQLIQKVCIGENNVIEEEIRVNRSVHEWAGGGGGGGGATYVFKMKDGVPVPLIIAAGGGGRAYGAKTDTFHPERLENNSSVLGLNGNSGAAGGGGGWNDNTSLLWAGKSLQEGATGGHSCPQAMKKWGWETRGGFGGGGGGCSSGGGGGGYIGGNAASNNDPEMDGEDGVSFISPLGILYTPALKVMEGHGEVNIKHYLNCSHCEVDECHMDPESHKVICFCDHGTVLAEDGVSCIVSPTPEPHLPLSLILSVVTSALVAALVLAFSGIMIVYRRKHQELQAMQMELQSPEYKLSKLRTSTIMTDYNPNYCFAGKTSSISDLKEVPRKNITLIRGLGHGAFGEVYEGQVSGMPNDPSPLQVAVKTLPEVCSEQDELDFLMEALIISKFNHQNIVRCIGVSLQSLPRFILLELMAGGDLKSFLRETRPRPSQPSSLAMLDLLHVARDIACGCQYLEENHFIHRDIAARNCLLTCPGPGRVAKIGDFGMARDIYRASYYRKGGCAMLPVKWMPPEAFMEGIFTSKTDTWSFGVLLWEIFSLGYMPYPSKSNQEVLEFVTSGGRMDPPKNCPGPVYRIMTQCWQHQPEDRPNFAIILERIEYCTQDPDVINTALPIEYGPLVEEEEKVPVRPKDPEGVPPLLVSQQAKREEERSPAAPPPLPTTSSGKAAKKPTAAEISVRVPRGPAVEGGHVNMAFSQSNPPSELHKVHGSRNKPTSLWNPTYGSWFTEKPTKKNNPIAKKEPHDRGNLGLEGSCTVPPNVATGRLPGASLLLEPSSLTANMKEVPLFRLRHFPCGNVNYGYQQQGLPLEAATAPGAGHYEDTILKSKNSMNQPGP

COc1cc([C@@H]2c3cc4c(cc3[C@H](O)[C@H]3COC(=O)[C@@H]23)OCO4)cc(OC)c1OC (racemic) [PPP, reference compound]
IC50 ([1]; read-out: ALK IC50): > 10000 nM | IC50 ([1]; read-out: GTx-ALK IC50): > 10000 nM | IC50 ([2]; read-out: GTx-IRK IC50): > 10000 nM | IC50 ([3]; 72 h, read-out: GTx-K299 IC50): 196 nM | IC50 ([3]; 72 h, read-out: K299 IC50): 196 nM | IC50 ([4]; read-out: GTx-U937 IC50): 138 nM | IC50 ([4]; read-out: U937 IC50): 138 nM

C[C@@H](Cc1c(F)c(F)cc(F)c1F)Nc1cc[nH]c(=O)c1-c1nc2cc3c(cc2[nH]1)CN(CCN(C)C)C3=O (single isomer, unassigned) [Compound 1 R isomer]
cell free activity (in words) [5]: inactive | IC50 ([6]; Mus musculus, BaF3, read-out: BaF3 Stables IC50 nM EML4-ALK): 1060 nM

C[C@@H](Cc1c(F)c(F)cc(F)c1F)Nc1cc[nH]c(=O)c1-c1nc2cc3c(cc2[nH]1)CN(CCN(C)C)C3=O [Compound 1, (S)-6-(2-(Dimethylamino)ethyl)-2-(2-oxo-4-((1-(2,3,5,6-tetrafluorophenyl)propan-2-yl)amino)-1,2-dihydropyridin-3-yl)-6,7-dihydroimidazo[4,5-f]isoindol-5(3H)-one]
IC50 ([7]; read-out: TrkB (nM) IC50): 2.06 nM | IC50 [8]: 0.205 nM | IC50 [9]: 3.53 nM | IC50 ([3]; 72 h, read-out: K299 IC50): 76 nM | IC50 ([3]; read-out: K299 IC50): 73 nM | IC50 ([4]; read-out: U937 IC50): 1600 nM | IC50 ([10]; read-out: SUDHL-1 IC50): 22 nM | IC50 [11]: 177 nM | half-life at 0.5 μM [12]: 0.14 h | Papp A→B at 2 h, 10 μM ([13]; apical pH 6.5, 2 h): < 0.2 ×10⁻⁶ cm/s | Papp B→A at 2 h, 10 μM ([13]; basolateral pH 7.4, 2 h): 19.9 ×10⁻⁶ cm/s | IV_AUC0-1440 Rat 10 mpk ([14]; 10 mg/kg I.V.): 329 µg·min/mL | PO_AUC0-1440 Rat 10 mpk ([14]; 10 mg/kg P.O.): 0.943 µg·min/mL | MRT [14, 34]: 22.7 h | clearance [14, 34]: 25.5 mL/min/kg | half-life [14, 34]: 22.1 h | Vd ([14]; male, Sprague-Dawley, plasma, iv, 10 mg/kg I.V., read-out: Vss): 23.9 L/kg | Cmax [14, 35]: 2.21 ng/mL | Tmax [14, 35]: 1.88 h | bioavailability ([14]; male, Sprague-Dawley, plasma, po, 10 mg/kg P.O., read-out: Rat F %): 0.287% | Human LM-P1 Half-life [15]: >2 h | microsomal CLint at 0.5 μM [16]: 5.87 µL/min/mg | half-life at 0.5 μM [16]: 1.97 h | half-life at 0.5 μM [17]: 8.43 min | microsomal CLint at 0.5 μM [17]: 82.2 µL/min/mg | F ([18]; 5 mg/kg PO): 12% | AUC(0-t) ([18]; plasma, iv, 1 mg/kg): 483 ng·h/mL | AUC ([18]; plasma, po, 5 mg/kg): 287 ng·h/mL | F ([19]; 10 mg/kg SC): 30% | AUC ([19]; iv): 1770 ng·h/mL | AUC ([19]; sc): 522 ng·h/mL | F ([20]; 10 mg/kg PO): 1% | AUC(0-t) ([20]; iv): 3570 ng·h/mL | AUC(0-t) ([20]; po): 37.2 ng·h/mL | IC50 [21]: 279 ± 21 nM | IC50 [22]: > 3 nM | microsomal CLint at 0.5 μM ([23]; pH 7.4): 100 µL/min/mg | half-life at 0.5 μM ([23]; pH 7.4, Rat LM-P1 Half-life (min), Phase I only, 0.5 μM, 1.0 mg/ml microsomes): 6.99 min | IC50 [24]: 6250 nM | Individual Data Points (% Inhibition) ([24]; 0.3 μM): 5.0% | Individual Data Points (% Inhibition) ([24]; 3 μM): 36.3% | Individual Data Points (% Inhibition) ([24]; 10 μM): 49.4% | Individual Data Points (% Inhibition) ([24]; 30 μM (low solubility at this concentration)): 62.7% | inhibition at 5 min, 0.3 µM [25, 36]: 5.9% | inhibition at 5 min, 3 µM [25, 36]: 43.6% | inhibition at 5 min, 10 µM [25, 36]: 59.4% | inhibition at 5 min, 30 µM [25, 36]: 71.1% | inhibition at 5 min, 0.3 µM ([25]; Mean % hERG Inhibition): 5.5% | inhibition at 5 min, 3 µM ([25]; Mean % hERG Inhibition): 39.9% | inhibition at 5 min, 10 µM ([25]; Mean % hERG Inhibition): 54.4% | inhibition at 5 min, 30 µM ([25]; Mean % hERG Inhibition): 66.9%

C[C@@H](Cc1c(F)c(F)cc(F)c1F)Nc1cc[nH]c(=O)c1-c1nc2cc3c(cc2[nH]1)CN(CCN1CCCC1)C3=O [Compound 3]
Individual Data Points (% Inhibition) ([26]; 0.3 µM): 11.2% | Individual Data Points (% Inhibition) ([26]; 3 µM): 49.7% | Individual Data Points (% Inhibition) ([26]; 10 µM): 70.8% | Individual Data Points (% Inhibition) ([26]; 30 µM): 81.7% | inhibition at 5 min, 0.3 µM [27, 36]: 13.2% | inhibition at 5 min, 3 µM [27, 36]: 49.1% | inhibition at 5 min, 10 µM [27, 36]: 75.7% | inhibition at 5 min, 30 µM [27, 36]: 87.2% | inhibition at 5 min, 0.3 µM ([27]; Mean % hERG Inhibition): 12.2% | inhibition at 5 min, 3 µM ([27]; Mean % hERG Inhibition): 49.4% | inhibition at 5 min, 10 µM ([27]; Mean % hERG Inhibition): 73.3% | inhibition at 5 min, 30 µM ([27]; Mean % hERG Inhibition): 84.4% | IC50 [24]: 3170 nM

C[C@@H](Cc1cc(F)cc(F)c1F)Nc1cc[nH]c(=O)c1-c1nc2cc3c(cc2[nH]1)CN(CCN(C)C)C3=O [Compound 31]
IC50 ([1]; read-out: ALK IC50): 1 nM | IC50 [28]: 299 nM | IC50 ([2]; read-out: IRK IC50): 578 nM | IC50 ([29]; read-out: TrKA IC50): 4 nM | IC50 ([3]; 72 h, read-out: K299 IC50): 154 nM | IC50 ([4]; read-out: U937 IC50): 2200 nM | half-life at 0.5 μM ([12]; liver microsomes): 0.484 h | microsomal CLint at 0.5 μM [16]: < 5.8 µL/min/mg | half-life at 0.5 μM [16]: > 2 h | half-life at 0.5 μM [17]: 8.7 min | microsomal CLint at 0.5 μM [17]: 79.9 µL/min/mg

Cc1ccc(F)cc1CC(C)Nc1cc[nH]c(=O)c1-c1nc2cc3c(cc2[nH]1)CN(C)C3=O (centres unmarked) [Compound 44, 2-(4-(1-(5-Fluoro-2-methylphenyl)propan-2-ylamino)-2-oxo-1,2-dihydropyridin-3-yl)-6-methyl-6,7-dihydroimidazo[4,5-f]isoindol-5(1H)-one]
IC50 ([1]; read-out: GTx-ALK IC50): 37 nM | IC50 ([29]; read-out: GTx-TrKA IC50): 4 nM | IC50 ([7]; read-out: GTx-TrKB IC50): 4 nM | IC50 [30]: 1 nM | IC50 ([3]; 72 h, read-out: GTx-K299 IC50): 798 nM | IC50 ([4]; read-out: GTx-U937 IC50): > 3000 nM | IC50 ([10]; Homo sapiens, SU-DHL-1, 72 h, read-out: GTx-SUDHL-1 IC50): 829 nM

(S)-6-(1-Methylpiperidin-4-yl)-2-(2-oxo-4-(1-(2,3,5,6-tetrafluorophenyl)propan-2-ylamino)-1,2-dihydropyridin-3-yl)-6,7-dihydroimidazo[4,5-f]isoindol-5(3H)-one [Compound 4]
IC50 ([1]; read-out: ALK (nM) IC50): 9.81 nM | IC50 ([1]; read-out: GTx-ALK IC50): 10 nM | IC50 ([29]; read-out: TrkA (nM) IC50): 5 nM | Rat LM-P1 Half-life [31]: >2 h | IC50 ([6]; read-out: BaF3 Stables IC50 nM EML4-ALK, EML4-ALK parent construct): 143 ± 6 nM | IC50 [32]: 283 ± 43 nM | IC50 [33]: 288 ± 20 nM
